Molecules are shown by their SMILES. Where two headings read alike, the source gives them in different places. *1 amine or outer side, *2 acyl side, *3 side chain or, on linkers, in order; H or OH if unused. Where a SMILES comes first, the peptide text is derived from it. Bridges are numbered along the chain shown (N, C = ends). [ ]: non-standard residue; d: D form. X1 = CC[C@H](C)[C@@H](N[*:1])[C@@H](O)CC(=O)O[C@H](C(=O)[C@H](C)C(=O)[*:2])C(C)C; X2 = CC(C(=O)C(OC(=O)CC(O)C(N[*:1])C(C)C)C(C)C)C(=O)[*:2]; X3 = COc1ccc(CC(C(=O)[*:2])N(C)[*:1])cc1Cl; NMeY = CN[C@@H](Cc1ccc(O)cc1)C(=O)O; dNMeL = CN[C@H](CC(C)C)C(=O)O; NMeL = CN[CH](CC(C)C)C(=O)O

Experiment [1] addresses T1, inducible nitric oxide synthase (iNOS) (Mus musculus, UniProt P29477).
T1 construct: endogenous in cells; host or cells: RAW264.7 macrophages, LPS induced
T1 sequence (P29477 1-1144): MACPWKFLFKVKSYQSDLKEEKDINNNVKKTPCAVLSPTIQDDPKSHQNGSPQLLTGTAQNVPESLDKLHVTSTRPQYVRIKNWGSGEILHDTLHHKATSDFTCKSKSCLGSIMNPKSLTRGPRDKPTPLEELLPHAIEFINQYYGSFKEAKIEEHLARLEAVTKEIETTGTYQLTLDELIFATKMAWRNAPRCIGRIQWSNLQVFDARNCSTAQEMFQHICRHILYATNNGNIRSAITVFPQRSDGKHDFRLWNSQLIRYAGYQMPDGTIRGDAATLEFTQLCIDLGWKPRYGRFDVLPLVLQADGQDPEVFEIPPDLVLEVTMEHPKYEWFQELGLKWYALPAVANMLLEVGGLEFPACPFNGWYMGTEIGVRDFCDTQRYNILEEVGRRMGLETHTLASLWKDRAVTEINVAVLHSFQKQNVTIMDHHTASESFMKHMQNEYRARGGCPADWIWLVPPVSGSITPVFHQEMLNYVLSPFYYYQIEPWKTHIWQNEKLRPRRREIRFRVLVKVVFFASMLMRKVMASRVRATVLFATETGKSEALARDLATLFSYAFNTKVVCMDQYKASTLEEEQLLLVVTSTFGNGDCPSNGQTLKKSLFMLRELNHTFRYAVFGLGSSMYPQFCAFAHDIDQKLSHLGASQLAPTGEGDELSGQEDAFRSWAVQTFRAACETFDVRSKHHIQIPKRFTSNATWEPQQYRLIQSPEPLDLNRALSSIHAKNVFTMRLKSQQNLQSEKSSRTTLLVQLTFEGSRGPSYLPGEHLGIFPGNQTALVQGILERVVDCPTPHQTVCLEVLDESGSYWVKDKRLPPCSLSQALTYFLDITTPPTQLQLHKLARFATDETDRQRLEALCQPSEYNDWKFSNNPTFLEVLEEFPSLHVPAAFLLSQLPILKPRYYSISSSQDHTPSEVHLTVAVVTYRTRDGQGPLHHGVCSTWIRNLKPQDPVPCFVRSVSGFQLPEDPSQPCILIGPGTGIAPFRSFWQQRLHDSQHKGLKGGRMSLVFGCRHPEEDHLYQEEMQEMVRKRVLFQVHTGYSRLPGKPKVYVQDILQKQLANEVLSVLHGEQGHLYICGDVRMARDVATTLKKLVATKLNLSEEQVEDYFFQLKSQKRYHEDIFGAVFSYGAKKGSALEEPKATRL
The experiment in a line: Inhibition of iNOS activity in LPS induced macrophages (RAW264.7 cells). Format: cell-based. Here is the method:
(§1) The isolated compounds 1–4 were tested in a series of in vitro cell-based assays for their effects on selected targets involved in the process of inflammation and cancer. Inflammation and oxidative stress are known to be linked to the development of many disorders such as cancer, organ damage, and neurodegenerative conditions. The NF-κB family of transcription factors plays a key role in inflammation, cell cycle regulation, apoptosis, and oncogenesis by controlling gene network expression. The activation of NF-κB involves many cellular processes leading to inflammation and development of cancer. In the assay for NF-κB activity, a luciferase construct with binding sites for specificity protein (SP-1) was used as a control because this transcription factor is relatively unresponsive to inflammatory mediators such as phorbol myristate acetate (PMA). Inducible nitric oxide synthase (iNOS) plays a key role in regulation of blood pressure, the immune system, infection, and inflammation. Overproduction of nitric oxide (NO) by iNOS has been implicated in various pathological processes such as septic shock, inflammation, rheumatoid arthritis, cancer, and tissue damage. The increase in NO response caused mainly by endotoxins and proinflammatory mediators such as lipopolysaccharide (LPS) can be reduced by anti-inflammatory agents acting as iNOS inhibitors. The isolated metabolites were also evaluated for their cytotoxicity towards four human solid tumor cell lines (SK-MEL: melanoma; KB: epidermal carcinoma; BT549: breast carcinoma and SK-OV-3: ovarian carcinoma) and non-cancer kidney cells (Vero: monkey kidney fibroblasts).
(§2) Similar to the effect of doxorubicin, the compounds (1–3) were less toxic towards noncancerous cells (Vero cells) which were included for comparison. The strong anticancer activity can be partly explained due to a strong inhibition of NF-κB mediated transcription that may cause enhanced apoptosis and cell death.
(§3) Inhibition of NF-κB mediated transcription was determined in SW1353 cells by a reporter gene assay as described by Ma et al.. Inhibition of iNOS activity was determined in RAW264.7 cells as described earlier. In vitro cytotoxicity was determined against a panel of four solid tumor cell lines and compared with noncancerous kidney cells (Vero). Parthenolide and doxorubicin were used as positive controls for anti-inflammatory and cytotoxic activity, respectively.

The subject of experiment [2] is nuclear factor-kappa B (NF-κB). The experiment in a line: Inhibition of NF-κB mediated transcription, reporter gene assay in PMA induced SW1353 chondrocytes. Format: cell-based. Conditions: Homo sapiens, SW1353 cells. Here is the method:
as §1, §2, §3

A further experiment has as its system SK-MEL. The experiment in a line: In vitro cytotoxicity, SK-MEL melanoma. Format: cell-based. Conditions: Homo sapiens, read-out: Anti-cell proliferative activity IC50, SK-MEL. Here is the method: as §1, §3
A further experiment concerns KB. Nature of the experiment: In vitro cytotoxicity, KB epidermal carcinoma. The settings on record: Homo sapiens, read-out: Anti-cell proliferative activity IC50, KB. Format: cell-based. Here is the method: as §1, §3
The test system of another experiment is BT-549. Nature of the experiment: In vitro cytotoxicity, BT-549 breast carcinoma. Format: cell-based. Conditions: Homo sapiens. Here is the method:
as §1, §3

In the next experiment the test system is SK-OV-3. Nature of the experiment: In vitro cytotoxicity, SK-OV-3 ovarian carcinoma. Format: cell-based. Conditions: Homo sapiens. Here is the method: as §1, §3
The subject of the next experiment is VERO. Nature of the experiment: In vitro cytotoxicity, Vero non-cancer kidney fibroblasts. Format: cell-based, monkey. Conditions: Primates, read-out: Anti-cell proliferative activity IC50, VERO. Here is the method: as §1, §3
[3] abbreviates: RAW264.7 cells, LPS induced, read-out: iNOS inhibition IC50.
[4] abbreviates: BT-549, read-out: Anti-cell proliferative activity IC50, BT-549.
Setting [5] is: SK-OV-3, read-out: Anti-cell proliferative activity IC50, SK-OV-3.

On to `CCC(C)C1NC(=O)C(NC(=O)C(CC(C)C)NC)C(C)OC(=O)C(Cc2ccc(OC)c(Cl)c2)N(C)C(=O)C2CCCN2C(=O)C(CC(C)C)NC(=O)C(C)C(=O)C(C(C)C)OC(=O)CC1O` (centres unmarked) [Compound 1, N,O-diMe-o-chlorotyrosine derivative of didemnin A], for which the IC50 in experiment [1] (setting [3]) was found to be 400 nM; in experiment [2] it was 260 nM; in the experiment with SK-MEL, 120 nM; in the experiment with KB it was 260 nM; with BT-549 (setting [4]) it was 160 nM; with SK-OV-3 (setting [5]), 260 nM. The concentration for half-maximal inhibition (IC50) in the experiment with VERO came out at 4.8 µM.

As to `CNC(CC(C)C)C(=O)NC1C(=O)NC(C(C)C)C(O)CC(=O)OC(C(C)C)C(=O)C(C)C(=O)NC(CC(C)C)C(=O)N2CCCC2C(=O)N(C)C(Cc2ccc(OC)c(Cl)c2)C(=O)OC1C` (centres unmarked) [Compound 2, nor-N,O-diMe-o-chlorotyrosine derivative of didemnin A] (H-[NMeL]T[X2]LP[X3]; ester 2-C; configuration not given here), the half-maximal inhibitory concentration (IC50) in experiment [1] (setting [3]) was determined as 420 nM; in experiment [2] it was 620 nM; with SK-MEL, 60 nM; in the experiment with KB, 420 nM; in the experiment on BT-549 (setting [4]), 160 nM; with SK-OV-3 (setting [5]), 380 nM. Moreover, the half-inhibitory concentration (IC50) in the experiment on VERO was found to be 2.08 µM.

As for `CC[C@H](C)[C@H]1NC(=O)[C@@H](NC(=O)[C@@H](CC(C)C)NC)[C@@H](C)OC(=O)[C@H](Cc2ccc(OC)cc2)N(C)C(=O)[C@@H]2CCCN2C(=O)[C@H](CC(C)C)NC(=O)[C@@H](C)C(=O)[C@H](C(C)C)OC(=O)C[C@@H]1O` [Compound 3, didemnin A] (H-[dNMeL]T[X1]LP[NMeY](Me); ester 2-C), the half-maximal inhibitory concentration (IC50) in experiment [1] is 190 nM; in experiment [2] it was 190 nM; in the experiment on SK-MEL it was 55 nM; with KB, 160 nM; with BT-549 (setting [4]) it was 70 nM; in the experiment on SK-OV-3 (setting [5]), 160 nM. The half-maximal inhibitory concentration (IC50) with VERO is 4.78 µM.

`CC[C@H](C)[C@H]1NC(=O)[C@@H](NC(=O)[C@@H](CC(C)C)N(C)C(=O)[C@@H]2CCCN2C(=O)C(C)O)[C@@H](C)OC(=O)[C@H](Cc2ccc(OC)cc2)N(C)C(=O)[C@@H]2CCCN2C(=O)[C@H](CC(C)C)NC(=O)[C@@H](C)C(=O)[C@H](C(C)C)OC(=O)C[C@@H]1O` (some centres unmarked) [Compound 4, didemnin B]: the concentration for half-maximal inhibition (IC50) in experiment [1] is 2 nM; in experiment [2], 30 nM; in the experiment on SK-MEL, 22 nM; in the experiment on KB, 90 nM; in the experiment on BT-549 (setting [4]), 20 nM; in the experiment on SK-OV-3 (setting [5]) it was 100 nM. Besides, the IC50 in the experiment with VERO stood at 0.15 µM.

`COc1cccc2c1C(=O)c1c(O)c3c(c(O)c1C2=O)C[C@@](O)(C(=O)CO)C[C@@H]3O[C@H]1C[C@H](N)[C@H](O)[C@H](C)O1` [Doxorubicin, reference compound]: the IC50 in the experiment with SK-MEL (melanoma) is 1100 nM; in the experiment with KB (epidermal carcinoma), 1660 nM; in the experiment with BT-549 (BT-549, breast carcinoma, read-out: Anti-cell proliferative activity IC50, BT-549), 1010 nM; with SK-OV-3 (SK-OV-3, ovarian carcinoma, read-out: Anti-cell proliferative activity IC50, SK-OV-3), 1660 nM; in the experiment on VERO (noncancerous monkey kidney fibroblasts), 14 µM.

`C=C1C(=O)O[C@H]2[C@H]1CC/C(C)=C/CC[C@@]1(C)O[C@@H]21` [Parthenolide, reference compound]: the half-inhibitory concentration (IC50) in experiment [1] (setting [3]) and in experiment [2] was 2800 nM in each case.

As usually defined, the IC50 is the concentration that gives 50% inhibition.

(Values after article PMC3853740, “Chlorinated Didemnins from the Tunicate Trididemnum solidum” (Marine Drugs, 2013).)
